Each molecule was assayed on influx of neutrophils to the lung in LPS-challenged rats (assay: Rat LPS neutrophilia model). Details: intratracheal compound 15 min-24 hours before LPS aerosol (100 ug/ml, 15 min), lavage 4 hours later, in at least one of the range of conditions tested.
Assay type: in vivo
Procedure: Rat LPS Neutrophilia Model
The effect of compounds on the influx of neutrophils to the lung in LPS-challenged rats is evaluated as follows. The test compound is suspended in one of the following solutions: 0.5% tween 80/PBS, 0.5% tween 80/saline, 10% EtOH/saline (with pH adjusted to 2.0, or 8.0 with HCl, or unadjusted), Saline @ pH 2.0, 6.5 or 8.0, 0.5% Tragacanth, 1% DMSO/20% Encapsin/Saline, or acidified 5% Tragacanth. The suspension process may be aided by the use of a glass homogenizer. For intratracheal administration, the animals are anesthetized with inhaled isoflurane and placed in a supine position, the trachea is intubated with a steel gavage needle (1.5 inch, 22 gauge, small ball) or a Penn-Century Microsprayer Aerosolizer (model IA-1B) and 200 ul of dosing solution is delivered. The animals are visually monitored during the recovery process, which typically occurs within two minutes.
Rats treated with compound or vehicle (15 min-24 hours pretreatment) are exposed to an LPS aerosol (100 ug/ml) for 15 min. Four hours later the rats are euthanized with pentobarbital (100 mg/kg, i.p.) and the airways are lavaged with 5 washes of 5 ml of phosphate buffered saline. The harvested cells are stained (Diffquick) and counted to determine total and differential cell data. In a typical study, macrophages represent 40-70% of the total cells, and polymorphonuclear cells 30-60% of the total cells. Inhibition of neutrophil levels relative to no compound controls is calculated based on the differential counts.
The assay has varying conditions, such as concentration, pretreat time, form of the compound (crystalline, amorphous, salts, micronised), and a wet or dry application of the compound. The data is obtained as % inhibition using a particular concentration and pretreat time.
For `CSc1nc(-c2cc(NC(=O)c3ccsc3)ccc2C)c2c(n1)N(c1c(F)cccc1F)C(=O)NC2` [7(c), N-{3-[8-(2,6-Difluorophenyl)-2-(methylthio)-7-oxo-5,6,7,8-tetrahydropyrimido[4,5-d]pyrimidin-4-yl]-4-methylphenyl}-3-thiophenecarboxamide], the “inhibition of neutrophilia (neutrophil influx to the lung)” value (from here on “inhibition of neutrophilia”) was “inactive”.
In the case of `Cc1ccc(C(=O)Nc2ccc(F)cc2)cc1-c1nc(NCCN(C)C)nc2c1CNC(=O)N2c1c(F)cccc1F` [8(c), 3-(8-(2,6-difluorophenyl)-2-{[2-(dimethylamino)ethyl]amino}-7-oxo-5,6,7,8-tetrahydropyrimido[4,5-d]pyrimidin-4-yl)-N-(4-fluorophenyl)-4-methylbenzamide], the “inhibition of neutrophilia” value is reported as “statistically significant inhibition of neutrophilia”.
With `CSc1nc(-c2cc(NC(=O)c3ccc(C)c(F)c3)ccc2C)c2c(n1)N(c1c(F)cccc1F)C(=O)NC2` [23(c), N-{3-[8-(2,6-difluorophenyl)-2-(methylthio)-7-oxo-5,6,7,8-tetrahydropyrimido[4,5-d]pyrimidin-4-yl]-4-methylphenyl}-3-fluoro-4-methylbenzamide] the “inhibition of neutrophilia” value was “inactive”.
In the case of `Cc1ccc(C(=O)Nc2ccc(C)c(-c3nc(NC4CC(C)(C)NC(C)(C)C4)nc4c3CNC(=O)N4c3c(F)cccc3F)c2)cc1F` [23(e), N-(3-{8-(2,6-difluorophenyl)-7-oxo-2-[(2,2,6,6-tetramethyl-4-piperidinyl)amino]-5,6,7,8-tetrahydropyrimido[4,5-d]pyrimidin-4-yl}-4-methylphenyl)-3-fluoro-4-methylbenzamide], the “inhibition of neutrophilia” value is reported as “statistically nonsignificant inhibition of neutrophilia”.
For `CCCNC(=O)c1ccc(C)c(-c2nc(NCCCN(CC)CC)nc3c2CNC(=O)N3c2c(F)cccc2F)c1` [29(c), 3-[2-{[3-(diethylamino)propyl]amino}-8-(2,6-difluorophenyl)-7-oxo-5,6,7,8-tetrahydropyrimido[4,5-d]pyrimidin-4-yl]-4-methyl-N-propylbenzamide], the “inhibition of neutrophilia” value was “statistically significant inhibition of neutrophilia”.
`Cc1ccc(C(=O)NC(C)C)cc1-c1nc(N(C)CCCN(C)C)nc2c1CNC(=O)N2c1c(F)cccc1F` [34(d), 3-{8-(2,6-difluorophenyl)-2-[[3-(dimethylamino)propyl](methyl)amino]-7-oxo-5,6,7,8-tetrahydropyrimido[4,5-d]pyrimidin-4-yl}-4-methyl-N-(1-methylethyl)benzamide] was tested, and the “inhibition of neutrophilia” value was “statistically nonsignificant inhibition of neutrophilia”.
In the case of `Cc1ccc(C(=O)Nc2ccc(F)cc2)cc1-c1nc(N2CCC(N3CCCC3)CC2)nc2c1CNC(=O)N2c1c(F)cccc1F` [86(c), 3-{8-(2,6-difluorophenyl)-7-oxo-2-[4-(1-pyrrolidinyl)-1-piperidinyl]-5,6,7,8-tetrahydropyrimido[4,5-d]pyrimidin-4-yl}-N-(4-fluorophenyl)-4-methylbenzamide], the “inhibition of neutrophilia” value is reported as “statistically nonsignificant inhibition of neutrophilia”.
For `Cc1ccc(C(=O)Nc2ccc(F)cc2)cc1-c1nc(N2CCC(N3CCCCC3)CC2)nc2c1CNC(=O)N2c1c(F)cccc1F` [87(b), 3-[2-(1,4′-bipiperidin-1′-yl)-8-(2,6-difluorophenyl)-7-oxo-5,6,7,8-tetrahydropyrimido[4,5-d]pyrimidin-4-yl]-N-(4-fluorophenyl)-4-methylbenzamide], the “inhibition of neutrophilia” value was “statistically nonsignificant inhibition of neutrophilia”.
With `Cc1ccc(C(=O)Nc2nccs2)cc1-c1nc(NCCN(C)C)nc2c1CNC(=O)N2c1c(F)cccc1F` [118(c), 3-(8-(2,6-difluorophenyl)-2-{[2-(dimethylamino)ethyl]amino}-7-oxo-5,6,7,8-tetrahydropyrimido[4,5-d]pyrimidin-4-yl)-4-methyl-N-1,3-thiazol-2-ylbenzamide] the “inhibition of neutrophilia” value was “statistically significant inhibition of neutrophilia”.
In the case of `Cc1ccc(C(=O)Nc2ccc(F)cc2)cc1-c1nc(N(C)CCCN(C)C)nc2c1CNC(=O)N2c1c(F)cccc1F` [Example 9, 3-{8-(2,6-difluorophenyl)-2-[[3-(dimethylamino)-propyl](methyl)amino]-7-oxo-5,6,7,8-tetrahydropyrimido[4,5-d]pyrimidin-4-yl}-N-(4-fluorophenyl)-4-methylbenzamide], the “inhibition of neutrophilia” value is reported as “statistically nonsignificant inhibition of neutrophilia”.
For `Cc1ccc(NC(=O)c2ccsc2)cc1-c1nc(N2CCC(N)CC2)nc2c1CNC(=O)N2c1c(F)cccc1F` [Example 11, N-{3-[2-(4-amino-1-piperidinyl)-8-(2,6-difluorophenyl)-7-oxo-5,6,7,8-tetrahydropyrimido[4,5-d]pyrimidin-4-yl]-4-methylphenyl}-3-thiophenecarboxamide], the “inhibition of neutrophilia” value was “statistically significant inhibition of neutrophilia”.
In the case of `Cc1ccc(C(=O)NCc2ccccc2)cc1-c1nc(N(C)CCCN(C)C)nc2c1CNC(=O)N2c1c(F)cccc1F` [Example 17, 3-{8-(2,6-Difluorophenyl)-2-[[3-(dimethylamino)propyl](methyl)amino]-7-oxo-5,6,7,8-tetrahydropyrimido[4,5-d]pyrimidin-4-yl}-4-methyl-N-(phenylmethyl)benzamide], the “inhibition of neutrophilia” value is reported as “statistically nonsignificant inhibition of neutrophilia”.
For `Cc1ccc(C(=O)Nc2ccc(C)c(-c3nc(N4CCC(N)CC4)nc4c3CNC(=O)N4c3c(F)cccc3F)c2)cc1F` [Example 24, N-{3-[2-(4-amino-1-piperidinyl)-8-(2,6-difluorophenyl)-7-oxo-5,6,7,8-tetrahydropyrimido[4,5-d]pyrimidin-4-yl]-4-methylphenyl}-3-fluoro-4-methylbenzamide], the “inhibition of neutrophilia” value was “statistically nonsignificant inhibition of neutrophilia”.
For `Cc1ccc(C(=O)Nc2ccc(C)c(-c3nc(OC(C)C)nc4c3CNC(=O)N4c3c(F)cccc3F)c2)cc1F` [Example 26, N-(3-{8-(2,6-difluorophenyl)-2-[(1-methylethyl)oxy]-7-oxo-5,6,7,8-tetrahydropyrimido[4,5-d]pyrimidin-4-yl}-4-methylphenyl)-3-fluoro-4-methylbenzamide], the “inhibition of neutrophilia” value was “inactive”.
For `Cc1ccc(C(=O)Nc2ccc(C)c(-c3nc(N(C)C)nc4c3CNC(=O)N4c3c(F)cccc3F)c2)cc1F` [Example 28, N-{3-[8-(2,6-difluorophenyl)-2-(dimethylamino)-7-oxo-5,6,7,8-tetrahydropyrimido[4,5-d]pyrimidin-4-yl]-4-methylphenyl}-3-fluoro-4-methylbenzamide], the “inhibition of neutrophilia” value was “statistically nonsignificant inhibition of neutrophilia”.
In the case of `Cc1ccc(C(=O)Nc2ccc(F)cc2)cc1-c1nc(N(C)CCN(C)C)nc2c1CNC(=O)N2c1c(F)cccc1F` [Example 32, 3-{8-(2,6-difluorophenyl)-2-[[2-(dimethylamino)ethyl](methyl)amino]-7-oxo-5,6,7,8-tetrahydropyrimido[4,5-d]pyrimidin-4-yl}-N-(4-fluorophenyl)-4-methylbenzamide], the “inhibition of neutrophilia” value is reported as “statistically nonsignificant inhibition of neutrophilia”.
In the case of `Cc1ccc(C(=O)NC(C)C)cc1-c1nc(N(C)CCN(C)C)nc2c1CNC(=O)N2c1c(F)cccc1F` [Example 36, 3-{8-(2,6-difluorophenyl)-2-[[2-(dimethylamino)ethyl](methyl)amino]-7-oxo-5,6,7,8-tetrahydropyrimido[4,5-d]pyrimidin-4-yl}-4-methyl-N-(1-methylethyl)benzamide], the “inhibition of neutrophilia” value is reported as “statistically significant inhibition of neutrophilia”.
`Cc1ccc(C(=O)NC(C)C)cc1-c1nc(NCCN(C)C)nc2c1CNC(=O)N2c1c(F)cccc1F` [Example 37, 3-(8-(2,6-difluorophenyl)-2-{[2-(dimethylamino)ethyl]amino}-7-oxo-5,6,7,8-tetrahydropyrimido[4,5-d]pyrimidin-4-yl)-4-methyl-N-(1-methylethyl)benzamide] was tested, and the “inhibition of neutrophilia” value was “statistically nonsignificant inhibition of neutrophilia”.
In the case of `Cc1ccc(C(=O)Nc2ccc(F)cc2)cc1-c1nc(NC2CCN(C)CC2)nc2c1CNC(=O)N2c1c(F)cccc1F` [Example 39, 3-{8-(2,6-difluorophenyl)-2-[(1-methyl-4-piperidinyl)amino]-7-oxo-5,6,7,8-tetrahydropyrimido[4,5-d]pyrimidin-4-yl}-N-(4-fluorophenyl)-4-methylbenzamide], the “inhibition of neutrophilia” value is reported as “statistically nonsignificant inhibition of neutrophilia”.
For `Cc1ccc(C(=O)NC(C)C)cc1-c1nc(NCCCN(C)C)nc2c1CNC(=O)N2c1c(F)cccc1F` [Example 40, 3-(8-(2,6-difluorophenyl)-2-{[3-(dimethylamino)propyl]amino}-7-oxo-5,6,7,8-tetrahydropyrimido[4,5-d]pyrimidin-4-yl)-4-methyl-N-(1-methylethyl)benzamide], the “inhibition of neutrophilia” value was “statistically significant inhibition of neutrophilia”.

From US7674789B2, “Compounds” (Glaxo Group Limited, priority 2005, dated 2010)
